Measurements as given in article PMC11635519, “A High-Throughput Method for Screening Peptide Activators of G-Protein-Coupled Receptors” (ACS Omega, 2024).
Entries after “also recorded” stand apart in the source; their conditions may differ. Where a SMILES comes first, the peptide text is derived from it.

Assays:
[1] = Circular dichroism secondary structure determination; conditions: acetonitrile:PBS (1:2), 20 μM peptide, 0.1 cm cuvette, 10 accumulations; for Others (secondary structure content) / α-helix content / β-sheet content: Table S2, estimated by BeStSel from CD; for α-helical structure content: circular dichroism
Experimental: We next performed circular dichroism (CD) analysis of the peptides in solution to determine the peptides’ secondary structure.
Peptide secondary structure determination was carried out using a Jasco J-720 spectropolarimeter (Table S2). Lyophilized peptide powders were dissolved in acetonitrile:PBS (1:2), and CD spectra were read immediately. […] Samples were read using a 0.1 cm cuvette path length with 10 accumulations per run and 50 nm/min scanning speed. All spectra were background subtracted.

[2] = target: T1, hGLP1R (Homo sapiens, UniProt P43220); assay: HTRF cAMP assay in GLP-1R-expressing HEK293 cells; format: cell-based; conditions: at higher concentrations, HEK293 stably expressing GLP-1R, 4 h at 37 °C
T1 construct: expressed in transfected cells
Experimental: cAMP accumulation was measured using a HTRF cAMP-Gs Dynamic kit (Cisbio Bioassays, 62AM4PEB) according to the manufacturer’s instructions. Briefly, HEK293 cells expressing hGLP1R were trypsinized from subconfluent culture and seeded in a 96-well low-volume plate at a density of 2000 cells per well. […] After 4 h of incubation at 37 °C, cAMP d2 reagent and cAMP Eu-Cryptate antibodies were added to each well. After incubation at room temperature for 30 min in the dark, the plate was read using a Synergy 2 plate reader (BioTek) with excitation at 330 nm and emission at 620 and 665 nm. Data were used to calculate the EC50 value by fitting it to a nonlinear sigmoidal curve using GraphPad Prism 8.

[3] = system: GLP-1R; assay: cAMP assay (TR-FRET) for validating GLP-1R activating peptides from screening; format: cell-based; conditions: cells stably expressing GLP-1R and CRE, transfected with peptide-expressing construct, 24 h + 24 h; TR-FRET cAMP-Gs Dynamic kit
Excerpt: We next screened the GPI-AP-peptide library using FACS to discover novel GLP-1R activators. FACS is a widely used flow cytometric technique that isolates specific cell populations from mixtures of different cells. Briefly, when a potential peptide activator stimulates GLP-1R, there is an intracellular boost of cAMP levels. Subsequently, cAMP activates CREB, which binds to CRE and triggers transcription of the GFP/luciferase reporter gene. […] We chose the top three activating peptides found throughout the screening for further validation testing (PepA3, Pep1, and Pep2).
Figure 3 Discovery of novel agonists of the GLP-1R using our screening platform. (A) Fluorescence-activated cell analysis and sorting of HEK293 cells transfected with the GLP-1R. […] (B) Confocal microscopy of HEK293 cells transfected with the GLP-1R treated with different peptides. […] The increase in the cyclic AMP concentration was quantified to evaluate the peptides’ activities.
The stable cell lines were prepared by the infection of HEK293T cells with the pLJM1 vector with GLP-1R and CRE. The cells were selected with the hygromycin antibiotic. […] The culture medium was changed, and cells were grown for 24 h. The cAMP cell content was estimated using a homogeneous time-resolved fluorescence resonance energy transfer (TR-FRET) immunoassay using a cAMP-Gs Dynamic kit (PerkinElmer) following manufacturer’s protocol.

[4] = system: GLP-1R; assay: FACS analysis of GFP-positive cells (CRE-GFP reporter), GLP-1R-expressing HEK293; format: cell-based; conditions: HEK293 cells transfected with GLP-1R
Experimental: Cells were harvested by trypsin treatment and centrifuged at 500g for 5 min. The pellet was resuspended in ice-cold PBS and centrifuged again. The pellet was then resuspended at a concentration of 4 × 10^6 cells/mL in the PBS sorting buffer containing 100 Kunitz DNase I/mL, 10 μg/mL propidium iodide (Sigma), and 2% FBS. The sorting solution was also supplemented with either 10 μM forskolin, 100 μM 5,6-dichlorobenzimidazole riboside (DRB, Sigma), 10 μM forskolin (Sigma), and 100 μM DRB or DMSO, as a control. The cells were then sent through a 40 μm filter to remove large clumps and loaded into either a FACScan Flow Cytometer (BD Bioscience) for cell analysis or a FACSVantage SE cell sorter (BD Bioscience) for cell sorting. The cells with positive propidium iodide staining, i.e., the dead cells, were first eliminated from the analysis or sorting pool. For cell sorting, the desired population, either the EGFP brightest or least bright ones according to the purpose of experiments (see Results), was sorted into either 15 mL conical tubes or 96-well plates, which contained complete DMEM culture media.

[5] = system: CCR2-mCherry; assay: FRET colocalization of MCP1-GFP with CCR2-mCherry at the cell surface; format: cell-based; conditions: MCP1-GFP and CCR2-mCherry; transient coexpression in HEK293 cells; FRET assays
Experimental: To validate our screening platform, we chose the interaction between the chemokine MCP1 peptide and C–C chemokine receptor 2 (CCR2).[10],[11] We designed a structure that encodes a fusion protein to display the MCP1 peptide on the cell surface. The Ly6/neurotoxin (LYNX1) signal and GPI-AP sequences were present in this fusion protein’s N- and C-terminal regions, respectively. A Flag tag or GFP sequence was added upstream of the GPI-AP sequence. We also investigated the effect of various linkers between MCP1 and FLAG, as well as the FLAG and GPI-AP sequences (Figure 2A). All of the different MCP1-GFP constructions and CCR2 receptor fused with the mCherry fluorescent protein (CCR2-mCherry) were cloned into the pLJM1 nGFP lentiviral vector to evaluate their expression in human embryonic kidney 293 (HEK293) cells.
Figure 2 Validation of the screening platform using the MCP1 peptide. (A) Genetic construction that encodes the fusion protein used to display library peptides on the cell surface. (B) Cell surface localization of the MCP1-GFP peptide and CCR2-mCherry receptor. MCP1-GFP peptide and CCR2-mCherry were localized at the cell surface when expressed separately. […]
MCP1-GFP and CCR2-mCherry were localized at the cell surface when expressed separately (Figure 2B). […] We then evaluated the activity of the different MCP1-GFP constructions using a CRE-luciferase reporter assay. […]

[6] = system: CCR2; assay: CRE-luciferase reporter assay of MCP1 fusion constructs (platform validation); format: cell-based; conditions: HEK293T stably expressing CCR2 and Gaussia luciferase reporter, luciferase induced by 10 μM forskolin
Excerpt: Figure 2 Validation of the screening platform using the MCP1 peptide. (A) Genetic construction that encodes the fusion protein used to display library peptides on the cell surface. (B) Cell surface localization of the MCP1-GFP peptide and CCR2-mCherry receptor. MCP1-GFP peptide and CCR2-mCherry were localized at the cell surface when expressed separately. (C) MCP1-GFP peptide colocalized with CCR2-mCherry at the cell surface and distinct subcellular sites upon transient coexpression in HEK293T cells. (D) Evaluating the activity of different fusion proteins of the MCP1 peptide using a CRE-luciferase reporter assay. […] The activation of the different peptide variants was recorded through the inhibition of the luciferase expression induced by 10 μM forskolin.
MCP1-GFP and CCR2-mCherry were localized at the cell surface when expressed separately (Figure 2B). […] We then evaluated the activity of the different MCP1-GFP constructions using a CRE-luciferase reporter assay. As a negative control, we used a construction where the MCP1 peptide is not fused to the signal or GPI-AP sequences.
HEK293T cells stably expressing CCR2 and the reporter Gaussia Luciferase construct were trypsinized from subconfluent culture and seeded in a 96-well plate at a density of 5000 cells per well. […] Immediately after adding the reagent, samples were read using a luminometer with a 480 nm filter.

[7] = target: glucagon-like peptide-1 receptor (human) (UniProt P43220)
glucagon-like peptide-1 receptor (human), sequence (P43220 24-463): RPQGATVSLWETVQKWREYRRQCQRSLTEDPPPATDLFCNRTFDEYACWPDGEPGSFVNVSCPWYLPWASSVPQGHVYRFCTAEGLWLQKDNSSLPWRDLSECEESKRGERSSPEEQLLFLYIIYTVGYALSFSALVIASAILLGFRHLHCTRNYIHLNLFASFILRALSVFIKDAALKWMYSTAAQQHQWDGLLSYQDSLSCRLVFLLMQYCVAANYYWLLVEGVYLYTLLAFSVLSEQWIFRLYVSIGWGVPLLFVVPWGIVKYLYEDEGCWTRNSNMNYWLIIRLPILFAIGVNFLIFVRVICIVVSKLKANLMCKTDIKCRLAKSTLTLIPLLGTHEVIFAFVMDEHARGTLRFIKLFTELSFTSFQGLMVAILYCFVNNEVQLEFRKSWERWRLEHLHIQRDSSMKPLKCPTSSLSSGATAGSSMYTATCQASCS

T1 sequence (P43220 24-463): as above

Row | Compound | Others (secondary structure content) [1] [%] | α-helix content [1] [%] | β-sheet content [1] [%] | α-helical structure content [1] | efficacy for GLP-1R activation relative to GLP-1 [2] | stimulation of GLP-1R-expressing cells and intracellular cAMP increase [3] | other results
1 | CC[C@H](C)[C@H](N)C(=O)N[C@@H](CS)C(=O)N[C@@H](CCC(=O)O)C(=O)NCC(=O)N[C@@H](CC(C)C)C(=O)N[C@@H](CCCNC(=N)N)C(=O)N[C@@H](CCC(=O)O)C(=O)N[C@H](C(=O)N[C@@H](CS)C(=O)N[C@@H](CCC(N)=O)C(=O)N1CCC[C@H]1C(=O)N[C@@H](C)C(=O)N[C@@H](Cc1ccccc1)C(=O)N[C@@H](CC(=O)O)C(=O)N[C@@H](C)C(=O)N[C@H](C(=O)N[C@@H](CC(=O)O)C(=O)N[C@@H](CCSC)C(=O)N[C@@H](C)C(=O)N[C@@H](Cc1c[nH]c2ccccc12)C(=O)N1CCC[C@H]1C(=O)N[C@@H](Cc1ccc(O)cc1)C(=O)N[C@@H](Cc1ccccc1)C(=O)N[C@@H](CC(C)C)C(=O)N[C@@H](CC(=O)O)C(=O)N[C@@H](CS)C(=O)N[C@@H](Cc1c[nH]cn1)C(=O)N[C@@H](CCCNC(=N)N)C(=O)N[C@@H](Cc1ccc(O)cc1)C(=O)N[C@@H](Cc1ccccc1)C(=O)N[C@H](C(=O)N[C@@H](CCCNC(=N)N)C(=O)N[C@@H](CCC(=O)O)C(=O)O)[C@@H](C)O)[C@@H](C)CC)C(C)C [PepA2] (H-ICEGLREVCQPAFDAIDMAWPYFLDCHRYFTRE-OH; N-terminus and C-terminus assumed) | 56.5 | 30.1 | 13.3 | 30.1–46.1% | able to stimulate GLP-1R activation to a level comparable to that of GLP-1 |  | 
2 | C=C[C@@]1(C)CC(=O)[C@]2(O)[C@@]3(C)[C@@H](O)CCC(C)(C)[C@@H]3[C@H](O)[C@H](OC(C)=O)[C@@]2(C)O1 [forskolin] |  |  |  |  |  |  | GFP-positive cells versus no treatment [4]: more GFP-positive cells
3 | ELAELVPRLFRVASKTHRDLLEVNLQNGILFV [Pep1] |  |  |  |  |  | Only PepA3 stimulated the GLP-1R-expressing HEK293 cells | 
4 | MCP1: chemokine MCP1 peptide displayed on the cell surface as fusion with LYNX1 signal and GPI-AP sequences |  |  |  |  |  |  | colocalization with CCR2 at the cell surface [5]: colocalization of MCP1 and CCR2 at the cell surface; activation of CCR2 receptor (inhibition of forskolin-induced luciferase expression) ([6]; MCP1 fused to the signal sequence and GPI-AP (all constructions), 6 h after transfection): activated the receptor in all the constructions where the peptide was fused to the signal sequence and GPI-AP; also recorded: activated the CCR2 receptor in all the constructions where the peptide was fused to the signal and GPI-AP sequences; activation of CCR2 receptor (inhibition of forskolin-induced luciferase expression) ([6]; negative control: MCP1 not fused to the signal or GPI-AP sequences): did not activate the CCR2 receptor when the peptide was not fused to the signal sequence and GPI-AP
5 | SGLAGHSVFLVPGLAAHPGSHSDQPPGVPSRR [Pep2] |  |  |  |  |  | Only PepA3 stimulated the GLP-1R-expressing HEK293 cells | 
6 | glucagon-like peptide-1 (ligand) |  |  |  |  |  |  | EC50 of the decrease of the FRET signal in the HTRF cAMP assay, GLP-1R expressing HEK293 cells [7]: 0.54 nM

Second part, led by results:

Row | Others (secondary structure content) [1] [%] | α-helix content [1] [%] | β-sheet content [1] [%] | α-helical structure content [1] | Compound | efficacy for GLP-1R activation relative to GLP-1 [2] | stimulation of GLP-1R-expressing cells and intracellular cAMP increase [3] | other results
7 | 46.7 | 42.9 | 10.4 | 30.1–46.1% | CC[C@H](C)[C@H](NC(=O)[C@H](C)NC(=O)[C@H](CC(=O)O)NC(=O)[C@H](Cc1ccccc1)NC(=O)[C@H](C)NC(=O)[C@@H]1CCCN1C(=O)[C@H](CCC(N)=O)NC(=O)[C@H](CS)NC(=O)[C@@H](NC(=O)[C@H](CCC(=O)O)NC(=O)[C@H](CCCNC(=N)N)NC(=O)[C@H](CC(C)C)NC(=O)CNC(=O)[C@H](CCC(=O)O)NC(=O)[C@@H](N)CS)C(C)C)C(=O)N[C@@H](CC(=O)O)C(=O)N[C@@H](CCSC)C(=O)N[C@@H](C)C(=O)N[C@@H](Cc1c[nH]c2ccccc12)C(=O)N1CCC[C@H]1C(=O)N[C@@H](Cc1ccc(O)cc1)C(=O)N[C@@H](Cc1ccccc1)C(=O)N[C@@H](CC(C)C)C(=O)N[C@@H](CC(=O)O)C(=O)N[C@@H](CS)C(=O)N[C@@H](Cc1c[nH]cn1)C(=O)N[C@@H](CCCNC(=N)N)C(=O)N[C@@H](Cc1ccc(O)cc1)C(=O)N[C@@H](Cc1ccccc1)C(=O)N[C@H](C(=O)N[C@@H](CCCNC(=N)N)C(=O)N[C@@H](CCC(=O)O)C(=O)O)[C@@H](C)O [PepA3] (H-CEGLREVCQPAFDAIDMAWPYFLDCHRYFTRE-OH; N-terminus and C-terminus assumed) | able to stimulate GLP-1R activation to a level comparable to that of GLP-1 | stimulated the GLP-1R-expressing HEK293 cells and increased the cAMP intracellular levels | 
8 | 45.4 | 46.1 | 8.5 | 30.1–46.1% | CC[C@H](C)[C@H](NC(=O)[C@H](C)NC(=O)[C@H](CC(=O)O)NC(=O)[C@H](Cc1ccccc1)NC(=O)[C@H](C)NC(=O)[C@@H]1CCCN1C(=O)[C@H](CCC(N)=O)NC(=O)[C@H](CS)NC(=O)[C@@H](NC(=O)[C@H](CCC(=O)O)NC(=O)[C@H](CCCNC(=N)N)NC(=O)[C@H](CC(C)C)NC(=O)CNC(=O)[C@H](CCC(=O)O)NC(=O)[C@H](CS)NC(=O)[C@@H](NC(=O)[C@@H](N)Cc1c[nH]cn1)[C@@H](C)CC)C(C)C)C(=O)N[C@@H](CC(=O)O)C(=O)N[C@@H](CCSC)C(=O)N[C@@H](C)C(=O)N[C@@H](Cc1c[nH]c2ccccc12)C(=O)N1CCC[C@H]1C(=O)N[C@@H](Cc1ccc(O)cc1)C(=O)N[C@@H](Cc1ccccc1)C(=O)N[C@@H](CC(C)C)C(=O)N[C@@H](CC(=O)O)C(=O)N[C@@H](CS)C(=O)N[C@@H](Cc1c[nH]cn1)C(=O)N[C@@H](CCCNC(=N)N)C(=O)N[C@@H](Cc1ccc(O)cc1)C(=O)N[C@@H](Cc1ccccc1)C(=O)N[C@H](C(=O)N[C@@H](CCCNC(=N)N)C(=O)N[C@@H](CCC(=O)O)C(=O)O)[C@@H](C)O [PepA] (H-HICEGLREVCQPAFDAIDMAWPYFLDCHRYFTRE-OH; N-terminus and C-terminus assumed) | able to stimulate GLP-1R activation to a level comparable to that of GLP-1 |  | 
